Columns and labels:
[1] = test system: rat adjuvant model of arthritis; experiment: Rat adjuvant model of arthritis, analgesic relief; assay type: in vivo
adenosine A2A receptor = adenosine A2A receptor (Homo sapiens, UniProt P29274); experiment: EC50 at the adenosine A2A receptor; assay type: biochemical
Excerpt: For the avoidance of doubt, the EC50 value of a compound is defined herein as the concentration of the compound that provokes a receptor response halfway between the baseline receptor response and the maximum receptor response (as determined, for example, using a dose-response curve).
The EC50 value should be determined under standard conditions (balanced salt solutions buffered to pH 7.4). For EC50 determinations using isolated membranes, cells and tissues this would be in buffered salt solution at pH 7.4 (e.g. cell culture medium), for example as in Daly et al., Pharmacol. (1993) 46, 91-100), or preferably as in Tilburg et al (J. Med. Chem. (2002) 45, 91-100). The EC50 could also be determined in vivo by measuring A2A adenosine receptor mediated responses in a normal healthy animal, or even in a tissue perfused under normal conditions (i.e. oxygenated blood, or oxygenated isotonic media, also buffered at pH 7.4) in a normal healthy animal.

[2] = test system: patients suffering from diabetic neuropathy; experiment: Phase 2A clinical trial, diabetic neuropathic pain; assay type: in vivo, human
Description: In a Phase 2A clinical trial, patients suffering from diabetic neuropathy were administered 2-methoxyadenosine (2-MeOAd)) (7 mg 3 times per day) or a placebo over a four week period, and asked to rate their pain intensity (diabetic neuropathic pain) once per week based on an 11 point Likert Scale (0-10). The patients included some who were already being administered with a calcium channel blocker at a conventional therapeutic dose. The calcium channel blockers administered included Amlodipine (5-10 mg once per day), Verapamil, or Felodipine.
Patients in the clinical trial also completed the Short form McGill pain questionnaire (SF-MPQ) (Melzack, Pain, 1987, August; 30(2):191-7). The main component of the SF-MPQ consists of 15 descriptors (11 sensory; 4 affective) which are rated on an intensity scale as […], 1=mild, 2=moderate or 3=severe. Three pain scores are derived from the sum of the intensity rank values of the words chosen for sensory, affective and total descriptors. The SF-MPQ also includes the Present Pain Intensity (PPI) index of the standard MPQ and a visual analogue scale (VAS).

A2A adenosine receptor = A2A adenosine receptor (Homo sapiens, UniProt P29274); conditions: pH below 7.4; cited from earlier work
[3] = patients also administered a calcium channel blocker
[4] = with calcium channel blocker, P<0.02

Sequence of A2A adenosine receptor (P29274 whole entry): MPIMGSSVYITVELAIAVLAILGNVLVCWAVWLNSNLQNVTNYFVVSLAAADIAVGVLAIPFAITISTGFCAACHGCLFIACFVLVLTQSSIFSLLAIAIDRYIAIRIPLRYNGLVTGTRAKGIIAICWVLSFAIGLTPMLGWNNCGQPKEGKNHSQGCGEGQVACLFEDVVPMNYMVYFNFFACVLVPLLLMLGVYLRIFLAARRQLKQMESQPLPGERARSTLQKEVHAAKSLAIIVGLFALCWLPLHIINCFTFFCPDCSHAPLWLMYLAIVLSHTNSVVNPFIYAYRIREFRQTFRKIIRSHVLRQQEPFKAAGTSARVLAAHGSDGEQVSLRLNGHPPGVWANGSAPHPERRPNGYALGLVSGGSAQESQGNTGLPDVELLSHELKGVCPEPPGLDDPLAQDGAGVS
Sequence of adenosine A2A receptor (P29274 whole entry): as above

## COc1nc(N)c2ncn([C@@H]3O[C@H](CO)[C@@H](O)[C@H]3O)c2n1 [2-methoxyadenosine]
[1]
  minimum plasma concentration giving maximal analgesic relief: 0.06 µM
Adenosine A2A receptor
  EC50: ~1 µM
[2]; [3]
  effect on 24-hour pain intensity compared with placebo: significant effect
  responder rate, patients who experienced >30% pain relief: 74%
  responder rate, patients who experienced >50% pain relief: 43%
[2]; patients also administered a calcium channel blocker, after 4 weeks, 7 mg 3 times per day, 11 point Likert Scale, P<0.01
  median change from baseline in 24-hour pain intensity: more than −2.5
[2]; patients not also administered a calcium channel blocker
  effect on 24-hour pain intensity compared with placebo: no effect
[2]; whole patient population (with and without calcium channel blocker), Week 4, 7 mg 3 times per day, 11 point Likert Scale
  median change from baseline in 24-hour pain intensity, difference below placebo: 0.7
[2]; with calcium channel blocker
  patient global impression of change (PGIC), 7 point scale: favourable effect
[2]; [4]
  Clinical global impression of change (CGIC), 7 point scale: reduction
  pain rated by the VAS (SF-MPQ): reduction
[2]; with calcium channel blocker, P<0.03
  SF-MPQ total pain intensity score: reduction
[2]; with calcium channel blocker, P<0.04
  present pain intensity (PPI, SF-MPQ): reduction
A2A adenosine receptor
  affinity for adenosine receptors at pH below pH 7.4: increased affinity
